Source: publication PMC8813842 (Clinical Pharmacokinetics, 2021)
“Also recorded” adds a separate entry of the source.

Key:
[1] = Population PK of allopurinol and oxypurinol in HIE neonates; assay type: in vivo, human; settings: for Patients reaching the predefined AUC12 target: ALBINO study; for AUC: human, plasma, intravenous, 20 mg/kg; for Difference in CL between males and females: sex as covariate on CL; for Difference in CL between TH and non-TH patients: therapeutic hypothermia as categorical covariate on CL
[2] = renal, URAT1 most important transporter; cited from earlier work
xanthine oxidase (XO) = xanthine oxidase (XO) (Homo sapiens, UniProt P47989); settings: in the first 24 h after birth
xanthine oxidase (XO), sequence (P47989 whole entry): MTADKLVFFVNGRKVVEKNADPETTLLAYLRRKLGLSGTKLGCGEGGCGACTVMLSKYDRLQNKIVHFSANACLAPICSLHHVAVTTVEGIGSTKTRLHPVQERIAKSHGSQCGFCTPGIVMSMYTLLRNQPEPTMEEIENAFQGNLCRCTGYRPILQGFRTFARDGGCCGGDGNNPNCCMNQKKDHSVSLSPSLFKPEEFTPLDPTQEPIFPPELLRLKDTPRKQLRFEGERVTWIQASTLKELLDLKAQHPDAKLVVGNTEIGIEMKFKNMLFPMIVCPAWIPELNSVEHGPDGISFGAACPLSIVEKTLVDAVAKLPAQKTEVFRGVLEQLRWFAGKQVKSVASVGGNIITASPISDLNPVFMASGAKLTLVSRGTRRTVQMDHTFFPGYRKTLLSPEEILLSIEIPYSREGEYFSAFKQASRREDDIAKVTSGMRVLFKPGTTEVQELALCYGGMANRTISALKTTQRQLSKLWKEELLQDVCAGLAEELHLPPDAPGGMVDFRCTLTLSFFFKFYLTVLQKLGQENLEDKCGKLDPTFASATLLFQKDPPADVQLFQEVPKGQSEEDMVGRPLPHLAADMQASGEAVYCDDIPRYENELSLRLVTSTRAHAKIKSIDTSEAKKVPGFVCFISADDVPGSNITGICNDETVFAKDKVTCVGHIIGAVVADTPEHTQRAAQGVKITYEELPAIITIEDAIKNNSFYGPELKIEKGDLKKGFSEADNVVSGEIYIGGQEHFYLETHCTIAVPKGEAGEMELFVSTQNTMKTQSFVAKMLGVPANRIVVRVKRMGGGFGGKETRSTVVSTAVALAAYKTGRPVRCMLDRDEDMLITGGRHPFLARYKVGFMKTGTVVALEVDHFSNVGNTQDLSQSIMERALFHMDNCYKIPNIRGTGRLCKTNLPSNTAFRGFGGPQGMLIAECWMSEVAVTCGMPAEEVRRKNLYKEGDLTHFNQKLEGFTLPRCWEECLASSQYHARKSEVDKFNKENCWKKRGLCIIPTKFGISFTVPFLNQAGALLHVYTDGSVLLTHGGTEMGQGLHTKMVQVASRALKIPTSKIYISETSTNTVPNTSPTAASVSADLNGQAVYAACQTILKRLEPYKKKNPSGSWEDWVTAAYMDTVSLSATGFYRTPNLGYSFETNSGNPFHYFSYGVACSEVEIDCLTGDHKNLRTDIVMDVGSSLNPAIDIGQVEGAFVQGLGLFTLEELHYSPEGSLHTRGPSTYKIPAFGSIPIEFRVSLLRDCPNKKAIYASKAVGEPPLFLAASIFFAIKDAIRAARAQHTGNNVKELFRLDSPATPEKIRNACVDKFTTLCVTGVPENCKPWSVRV

In the case of `O=c1[nH]c(=O)c2c[nH]nc2[nH]1` [oxypurinol], the “Patients reaching the predefined AUC12 target” value ([1]; TH group) is reported as 61%, the “Patients reaching the predefined AUC12 target” value ([1]; non-TH group) is reported as “all patients reached the targets” and the AUC [1] is reported as 37400 ± 12800 ng·h/mL. For the same molecule, the “Difference in CL between males and females” value [1] was “No significant difference”, the “Difference in CL between TH and non-TH patients” value [1] was “No difference; also recorded: no significant differences; also recorded: not significantly different; also recorded: Clearances of allopurinol and oxypurinol were not significantly different between TH and non-TH patients” and the “Glomerular filtered oxypurinol actively reabsorbed” value [2] was “approximately 80%”.

In the case of `Oc1ncnc2[nH]ncc12` [allopurinol], the “Patients reaching the predefined AUC12 target” value ([1]; TH group) is reported as 92%, the “Patients reaching the predefined AUC12 target” value ([1]; non-TH group) is reported as “all patients reached the targets” and the AUC [1] is reported as 160000 ± 62600 ng·h/mL. The “Difference in CL between males and females” value [1] was “No significant difference”, the “Difference in CL between TH and non-TH patients” value [1] was “No difference; also recorded: no significant differences; also recorded: not significantly different; also recorded: Clearances of allopurinol and oxypurinol were not significantly different between TH and non-TH patients” and the “Decrease of estimated allopurinol CL due to autoinhibition” value (xanthine oxidase (XO)) was 70%.
